Key:
[1] = system: Friedreich's ataxia lymphoblast cell line GM15850; test: Cytoprotection (trypan blue exclusion assay) of DEM-treated FRDA lymphocytes; assay type: cell-based; conditions: for viability at 5 µM / viability at 0.1 µM / viability at 0.5 µM / viability at 2.5 µM / viability at 1 µM: Homo sapiens, GM15850, DEM alone 18 ± 10% viability, read-out: Cytoprotection (cell viability, % of untreated control)
Description: Cell viability was determined by trypan blue exclusion assay in Friedreich's ataxia lymphoblast cell line GM15850 (Coriell Institute, New Jersey). This technique was used to assess the cytoprotective effects of the tested compounds in cultured cells treated with DEM to induce cell death by GSH depletion. The viability of DEM-treated FRDA cells was determined by their ability to exclude the dye trypan blue. Viable cells exclude trypan blue, whereas non-viable cells take up the dye and stain blue. Briefly, FRDA lymphocytes were grown in RPMI 1640 medium (Gibco) supplemented with 15% fetal calf serum, 2 mM glutamine (HyClone) and 1% penicillin-streptomycin mix (Cellgro). Cells were seeded at a density of 5×10^5 cells/mL and treated with different concentrations of the indicated compounds. Cells were incubated at 37° C. in a humidified atmosphere of 5% CO2 in air for 17 h. After pre-incubation, the cells were treated with 5 mM DEM. Cell viability was determined by staining cells with 0.4% trypan blue using a hemacytometer. At least 500 cells were counted in each experimental group. At the time of assay, <20% of DEM treated cells were viable (trypan blue negative), whereas in non DEM-treated control, >90% cells were viable. Cell viability was expressed as the percentage of control. Data are expressed as means±S.E.M. (n=3).
Cell viability was determined by trypan blue exclusion assay in Friedreich's ataxia lymphoblast cell line GM15850 (Coriell Institute). This technique was used to assess the cytoprotective effects of the compounds in cultured cells treated with diethyl maleate (DEM) to induce cell death by glutathione (GSH) depletion. The viability of DEM-treated FRDA cells was determined by their ability to exclude the dye trypan blue. Viable cells exclude trypan blue, whereas non-viable cells take up the dye and stain blue. […] Benzoquinone analogue 9 afforded greater cyoprotection to FRDA lymphocytes at 5 μM concentration than did the tert-butyl ester 6 (74 vs 50%).

[2] = molecular target: bovine heart mitochondrial complex I (Bos taurus, UniProt P03887+P17694+P42026); test: Complex I (NADH-Q1 oxidoreductase) inhibition in submitochondrial particles; assay type: biochemical; conditions: submitochondrial particles, 30° C.; for IC50: read-out: Complex I inhibition IC50; for Emax: read-out: Complex I inhibition Imax
Sequence of bovine heart mitochondrial complex I (P25708 21-464): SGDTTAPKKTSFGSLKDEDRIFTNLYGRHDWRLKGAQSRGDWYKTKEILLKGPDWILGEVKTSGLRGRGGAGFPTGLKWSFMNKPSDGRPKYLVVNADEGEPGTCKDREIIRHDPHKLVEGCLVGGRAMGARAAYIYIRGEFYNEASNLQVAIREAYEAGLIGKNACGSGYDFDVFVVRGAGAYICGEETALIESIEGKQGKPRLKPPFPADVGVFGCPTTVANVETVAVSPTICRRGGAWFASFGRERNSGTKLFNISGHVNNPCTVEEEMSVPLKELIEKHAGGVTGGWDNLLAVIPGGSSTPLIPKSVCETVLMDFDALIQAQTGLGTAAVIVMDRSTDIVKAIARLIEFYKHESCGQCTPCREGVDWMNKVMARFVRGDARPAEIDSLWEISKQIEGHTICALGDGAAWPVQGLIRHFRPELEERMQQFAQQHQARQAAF
Sequence of bovine heart mitochondrial complex I (P42026 38-216): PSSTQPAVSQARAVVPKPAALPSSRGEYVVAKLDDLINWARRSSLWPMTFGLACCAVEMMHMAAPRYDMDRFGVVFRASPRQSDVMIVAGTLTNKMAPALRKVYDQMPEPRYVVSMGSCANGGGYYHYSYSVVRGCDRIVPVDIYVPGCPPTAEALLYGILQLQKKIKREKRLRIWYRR
Sequence of bovine heart mitochondrial complex I (P17694 34-463): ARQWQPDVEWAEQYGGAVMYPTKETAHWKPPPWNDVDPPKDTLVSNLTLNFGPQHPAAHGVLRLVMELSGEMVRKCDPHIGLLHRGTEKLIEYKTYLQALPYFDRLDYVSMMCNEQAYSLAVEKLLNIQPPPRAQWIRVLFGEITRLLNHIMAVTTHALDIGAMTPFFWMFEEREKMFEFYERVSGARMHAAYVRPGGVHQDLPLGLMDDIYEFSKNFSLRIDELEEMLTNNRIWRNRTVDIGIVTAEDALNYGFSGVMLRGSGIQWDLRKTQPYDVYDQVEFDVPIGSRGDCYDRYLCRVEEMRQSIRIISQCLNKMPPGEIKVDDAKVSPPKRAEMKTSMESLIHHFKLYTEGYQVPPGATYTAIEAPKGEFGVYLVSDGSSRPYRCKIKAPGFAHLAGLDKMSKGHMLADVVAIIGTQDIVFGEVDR
Sequence of bovine heart mitochondrial complex I (P15690 24-727, further chain): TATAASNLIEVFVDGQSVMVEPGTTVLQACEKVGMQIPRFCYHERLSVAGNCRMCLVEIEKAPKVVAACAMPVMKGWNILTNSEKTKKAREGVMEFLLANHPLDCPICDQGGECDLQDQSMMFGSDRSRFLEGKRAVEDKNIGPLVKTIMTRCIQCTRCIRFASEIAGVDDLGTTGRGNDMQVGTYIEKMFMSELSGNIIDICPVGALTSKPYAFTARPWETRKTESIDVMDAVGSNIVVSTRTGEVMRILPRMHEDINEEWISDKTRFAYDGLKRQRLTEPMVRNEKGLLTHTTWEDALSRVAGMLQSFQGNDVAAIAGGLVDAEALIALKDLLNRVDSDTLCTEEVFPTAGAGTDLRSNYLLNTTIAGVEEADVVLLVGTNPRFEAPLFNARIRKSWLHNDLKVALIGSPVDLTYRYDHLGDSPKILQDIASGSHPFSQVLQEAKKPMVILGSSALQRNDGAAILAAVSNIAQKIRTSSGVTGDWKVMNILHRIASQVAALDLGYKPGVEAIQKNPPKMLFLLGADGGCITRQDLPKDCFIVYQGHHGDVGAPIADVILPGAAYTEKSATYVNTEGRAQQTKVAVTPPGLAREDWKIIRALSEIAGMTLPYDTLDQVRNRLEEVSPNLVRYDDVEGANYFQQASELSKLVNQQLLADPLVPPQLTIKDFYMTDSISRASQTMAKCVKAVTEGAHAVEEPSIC
Sequence of bovine heart mitochondrial complex I (P03887 whole entry): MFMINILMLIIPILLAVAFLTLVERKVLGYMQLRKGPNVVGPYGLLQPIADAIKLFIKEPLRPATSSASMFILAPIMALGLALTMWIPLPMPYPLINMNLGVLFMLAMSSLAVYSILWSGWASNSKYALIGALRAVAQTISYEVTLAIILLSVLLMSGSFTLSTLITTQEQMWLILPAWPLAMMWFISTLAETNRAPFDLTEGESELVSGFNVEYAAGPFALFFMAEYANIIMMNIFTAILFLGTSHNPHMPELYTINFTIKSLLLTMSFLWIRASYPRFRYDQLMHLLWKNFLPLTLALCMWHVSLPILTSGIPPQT
Sequence of bovine heart mitochondrial complex I (P42028 37-212, further chain): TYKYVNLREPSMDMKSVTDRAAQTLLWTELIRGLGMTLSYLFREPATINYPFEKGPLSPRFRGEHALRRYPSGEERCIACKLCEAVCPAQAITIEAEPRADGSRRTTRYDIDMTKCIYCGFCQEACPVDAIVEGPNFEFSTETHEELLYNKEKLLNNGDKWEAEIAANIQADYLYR

[3] = system: NADH oxidase (complexes I, III and IV); test: NADH oxidase activity (complexes I, III and IV) in submitochondrial particles; assay type: biochemical, bovine
FRDA lymphocytes = test: Suppression of lipid peroxidation (C11-BODIPY581/591, FACS) in FRDA lymphocytes treated with diethyl maleate; assay type: cell-based; conditions: Lymphocyte, DEM, read-out: Scavenging activity (%), suppression of lipid peroxidation
Text: Several methods for assaying lipid peroxidation in vitro have been developed (Kuypers et al. (1987) Biochim Biophys Acta. 25, 266-274; Pap et al. (1999) FEBS Lett. 453, 278-282; Drummen et al. (2002) Free RadicBiol Med. 33, 473-490). Almost all of these methods are based on inhibition of free radical-induced oxidation reactions. A widely used fluorescence assay for lipid peroxidation uses lipid soluble cis-parinaric acid as a probe. cis-parinaric acid loses its fluorescence (λexc/em: 320/432 nm) upon interaction with peroxyl radicals and retains its fluorescence in the presence of radical quenchers. cis-parinaric acid is, however, air sensitive, photolabile and absorbs light in the UV region of the spectrum (at ˜320 nm). […] In practical terms, the results obtained using cis-parinaric as a probe for lipid peroxidation are confounded due to the overlapping of the compounds emission spectra with the cis-parinaric emission spectrum. C11-BODIPY^581/591 Oxidation to Measure Lipid Peroxidation To overcome the problem of spectral overlap using cis-parinaric acid, a fluorescence assay for lipid peroxidation using a lipophilic probe belonging to the BODIPY class of fluorescent dyes was used C11-BODIPY^581/591 (4,4-difluoro-5(4-phenyl-1,3-butadienyl)-4-bora-3a, 4a-diaza-s-indacene-3-propionic acid) fluorescent shifts from red to green upon oxidation. C11-BODIPY^581/591 (Molecular Probes, Eugene, Oreg., USA) stock solution concentrations were determined by measuring the absorption of C11-BODIPY^581/591 at 582 nm using a molar extinction coefficient of 140,000 mol^−1 cm^−1 (R. P. Haugland, (1999) Handbook of Fluorescent Probes and Research Chemicals, Molecular Probes, Inc., Eugene, Oreg.). The lipid peroxidation inducer 2,2′-Azobis (2-amidino-propane dihydrochloride) (AAPH) and the antioxidant compound α-tocopherol (α-TOH) were obtained from Sigma (St. Louis, Mo., USA). Phospholipid bilayers were prepared from 1-stearoyl-2-oleoyl-phosphatidylcholine (SOPC) and 1,2-dilinoleoyl-phosphatidylcholine (DLPC) and were purchased from Avanti® polar lipids, Inc., (Alabaster, Ala., USA). Preparation of Liposomes Phosphotidylcholine (PC) liposomes were prepared as described before (Guey-Shuang et al. (1982) Lipids. 17, 403-413). Briefly, DLPC (25 mg) were dissolved in chloroform and the solvent was removed by nitrogen evaporation (˜2 hours) to give a thin film of PC in a round bottom flask. The lipid film was hydrated with 50 mL of 10 mM Tris-HCl (pH 7.4), 100 mM KCl, shaken and sonicated for 15 seconds. The liposomes obtained were filtered several times through […] membrane filter. Measurement of C11-BODIPY^581/591 Oxidation C11-BODIPY^581/591 was incorporated into liposomes and oxidized by peroxyl radicals derived from the decomposition of AAPH in the presence and absence of compounds. Liposomes (1 mg/mL), suspended in 10 mM Tris-HCl (pH 7.4), 100 mM KCl, were transferred to a quartz 1 mL cuvette and placed in a Varian Cary Eclipse fluorometer (Varian, Cary, N.C.) equipped with a thermostatted cuvette holder at 40° C. Liposomes were pre-incubated for 10 min with 200 nM C11-BODIPY^581/591 to allow their incorporation into the lipid phase of the liposomes. After the addition of AAPH (10 mM) the decay of the red fluorescence was followed at λ exc=570 nm, λ em=600 nm. Relative fluorescence units were normalized to 100% intensity. Results obtained were verified by repeating experiments N=3 independent experiments. Measurement of C11-BODIPY^581/591 Oxidation in Cell Culture A quantitative FACS analysis of lipid peroxidation of FRDA lymphocytes, which had been treated with diethyl maleate following incubation in the presence and absence of the test compounds, was measured as described (Khdour et al. (2011) Pharmaceut. Res. 28, 2896-2909). Briefly, FRDA lymphocytes (5×10^5 cell/mL) were treated with the test compounds at final concentrations of 5 and 10 μM and incubated at 37° C. for 16 h in a humidified atmosphere containing 5% CO2 in air. […]

SMILES | viability at 5 µM ([1]; 5 μM) [%] | IC50 [2] [nM] | Emax [2] [%] | NADH oxidase activity (Complex I, III, IV) % ([3]; 1 μM) [%] | NADH oxidase activity (Complex I, III, IV) % ([3]; 5 μM) [%] | also measured
CCCCCCCCCCCCCC1=C(OC)C(=O)C=C(NCCCC(=O)OCc2ccccc2)C1=O [Compound 12, benzyl 4-(4-methoxy-3,6-dioxo-5-tridecylcyclohexa-1,4-dienylamino)butanoate] | 71 ± 6.4 | 34000 ± 2500 | ≥ 53 | 67 ± 6.0 | 48 ± 3.0 | 
CCCCCCCCCCCCCC1=C(O)C(=O)C=C(N(C)C)C1=O [Compound 25, 5-(dimethylamino)-2-hydroxy-3-tridecylcyclohexa-2,5-diene-1,4-dione] |  | 1500 ± 100 | 90 ± 3.4 | 18 ± 0.5 | 6.6 ± 0.1 | viability at 0.1 µM [1]: 21 ± 3%; viability at 0.5 µM [1]: 18 ± 4%; viability at 2.5 µM [1]: 24 ± 3%; NADH oxidase activity (Complex I, III, IV) % ([3]; 10 μM): 5.0 ± 0.1%
CCCCCCCCCCCCCC1=C(OC)C(=O)C=C(N(C)CCCC(=O)OCCCCCC)C1=O [Compound 24, Hexyl 4-((4-methoxy-3,6-dioxo-5-tridecylcyclohexa-1,4-dienyl)(methyl)amino)butanoate] |  | 1900 ± 100 | 90 ± 0.7 | 81 ± 1.5 | 33 ± 0.9 | NADH oxidase activity (Complex I, III, IV) % ([3]; 10 μM): 17 ± 0.4%
C=CCCCCCCCCCC1=C(O)C(=O)C=C(NCCCCC=C)C1=O [Compound 37, 5-(hex-5-enylamino)-2-hydroxy-3-(undec-10-enyl)cyclohexa-2,5-diene-1,4-dione] |  |  |  |  |  | melting point: 77 to 78 °C
CCCCCCCCCCCCCC1=C(O)C(=O)C=C(N(C)CCCC(=O)OC(C)(C)C)C1=O [Compound 29, tert-butyl 4-((4-hydroxy-3,6-dioxo-5-tridecylcyclohexa-1,4-dienyl)(methyl)amino)-butanoate] |  |  |  |  |  | viability at 1 µM [1]: 21%; viability at 2.5 µM [1]: 74 ± 4%
CCCCCCCCCCCCCC1=C(O)C(=O)C=C(N(C)CCCC(=O)OCCCCCC)C1=O [Compound 23, hexyl 4-((4-hydroxy-3,6-dioxo-5-tridecylcyclohexa-1,4-dienyl)(methyl)amino)-butanoate] |  | 3400 ± 100 | 78 ± 0.8 | 82 ± 2.4 | 36 ± 1.0 | NADH oxidase activity (Complex I, III, IV) % ([3]; 10 μM): 18 ± 0.5%
C=CCCCCCCCCCC1=C(OC)C(=O)C=C(NCCCCC=C)C1=O [Compound 38, 5-(hex-5-enylamino)-2-methoxy-3-(undec-10-enyl)cyclohexa-2,5-diene-1,4-dione] |  |  |  |  |  | melting point: 45 to 46 °C
C=CCCCCCCCCCc1c(OC)c(OC)cc(OC)c1OC [Compound 34, 1,2,4,5-tetramethoxy-3-(undec-10-enyl)benzene] |  |  |  |  |  | melting point: 33 to 34 °C
CCCCCCCCCCCCCC1=C(OC)C(=O)C=C(N(C)CCCC(=O)OC(C)(C)C)C1=O [Compound 30, tert-butyl 4-((4-methoxy-3,6-dioxo-5-tridecylcyclohexa-1,4-dienyl)(methyl)amino)-butanoate] |  |  |  |  |  | inhibition at 5 µM (FRDA lymphocytes): 97%; inhibition at 10 µM (FRDA lymphocytes): 100%; viability at 1 µM [1]: 64 ± 15%; viability at 2.5 µM [1]: 82 ± 5%
CCCCCCCCCCCCCC1=C(O)C(=O)C=C(NCCCC(=O)O)C1=O [Compound 8, 4-(4-hydroxy-3,6-dioxo-5-tridecylcyclohexa-1,4-dienylamino)butanoic Acid] | 36 ± 7.3 | 2000 ± 100 | 84 ± 1.3 | 77 ± 4.0 | 62 ± 3.0 | inhibition at 5 µM (FRDA lymphocytes): 8 ± 6.6%; inhibition at 10 µM (FRDA lymphocytes): 24%; Cytoprotection (in words) ([1]; 5 μM, compared with 6 and 9): least protection
CCCCCCCCCCCCCC1=C(O)C(=O)C=C(NCCCC(=O)OCc2ccccc2)C1=O [Compound 11, Benzyl 4-(4-hydroxy-3,6-dioxo-5-tridecylcyclohexa-1,4-dienylamino)butanoate] | 48 ± 5.8 | 1700 ± 100 | 70 ± 0.31 |  |  | 
CCCCCCCCCCCCCC1=C(OC)C(=O)C=C(N(C)C)C1=O [Compound 26, 5-(dimethylamino)-2-methoxy-3-tridecylcyclohexa-2,5-diene-1,4-dione] |  | 1600 ± 30 | 90 ± 1.1 | 70 ± 2.1 | 34 ± 0.6 | viability at 0.1 µM [1]: 53 ± 9%; viability at 0.5 µM [1]: 66 ± 3%; viability at 2.5 µM [1]: 90 ± 3%; NADH oxidase activity (Complex I, III, IV) % ([3]; 10 μM): 15 ± 0.4%
CCCCCCCCCCCCCC1=C(OC)C(=O)C=C(NCCCC(=O)O)C1=O [Compound 9, 4-(4-methoxy-3,6-dioxo-5-tridecylcyclohexa-1,4-dienylamino)butanoic Acid] | 74 | 1900 ± 100 | 98 ± 2.8 |  |  | inhibition at 5 µM (FRDA lymphocytes): 41 ± 7.2%; inhibition at 10 µM (FRDA lymphocytes): 51 ± 5%
CCCCCCCCCCCCCC1=C(O)C(=O)C=C(NCCCC(=O)OCCCC)C1=O [Compound 14, Butyl 4-(4-hydroxy-3,6-dioxo-5-tridecylcyclohexa-1,4-dienylamino)butanoate] | 58 ± 9 | 11000 ± 600 | 58 ± 4 |  |  | 
CCCCCCCCCCCCCC1=C(O)C(=O)C=C(NCCCC(=O)OCCCCCC)C1=O [Compound 17, Hexyl 4-(4-hydroxy-3,6-dioxo-5-tridecylcyclohexa-1,4-dienylamino)butanoate] | 49 ± 9.9 | 2000 ± 400 | 51 ± 1.4 |  |  | inhibition at 5 µM (FRDA lymphocytes): 9 ± 2.5%; inhibition at 10 µM (FRDA lymphocytes): 40 ± 9.9%
